Measured values taken from patent publication US8217059B2, “Compositions and methods for treating spasticity” (Allergan, Inc., priority 2009, dated 2012).
“Also recorded” adds a separate entry of the source.

Key:
rats with spasticity [1] = experiment: Peripheral muscle resistance during computer-controlled ankle flexion in rats with ischemia-induced spasticity; assay type: in vivo
Method: (§1) After ischemia, animals with developed paraplegia were selected and maintained for 3-12 months. To identify the presence of spasticity, the following tests were performed at 7-14 day intervals as described below: 1) tonic EMG activity recorded from gastrocnemius muscle (i.e., stimulus-independent changes in EMG activity); 2) peripheral muscle resistance measurement during a computer controlled ankle-flexion and simultaneous EMG recording from gastrocnemius muscle (i.e., stimulus-dependent changes in EMG activity); and 3) motor evoked potential recording.
Peripheral muscle resistance was measured using a previously described system (O. Kakinohana, Neuroscience 1:141(3) (2006)). Briefly, animals are placed into a plastic restrainer and one hind paw attached by a tape to a metal plate driven by a computer-controlled stepping motor. The metal plate is equipped with a digital force transducer. The resistance of the ankle to flexion was measured during motor-driven ankle flexion and data collected directly to the computer.

rats with spasticity [2] = experiment: Electromyographic (EMG) recording from gastrocnemius muscle during ankle flexion in rats with ischemia-induced spasticity; assay type: in vivo; conditions: 100 mg/kg i.p., FIG. 1
Method: as §1
To record EMGs, two silver needle (22 G) electrodes (distance between recording electrodes=1 cm) were placed percutaneously into the gastrocnemius muscle. Electrodes were connected to a preamplifier (HS4 fiber optic BIOAMP HEADSTAGE, WPI) and amplified using DB4 fiber optic amplifier (WPI). Animals were then allowed to acclimate for 10 min and the EMG responses recorded before, during and after ankle flexion. Recorded signal was digitized by the Instrunet Model 100 Network A/D, acquired by the Instrunet Model 200 PCI controller (Omega, USA) and stored in PC for analysis.

For `N[C@@H](C(=O)N1CCCC1)[C@@H](O)c1ccncc1` [Compound A], the “spasticity associated with transient ischemia of the spinal cord” value (rats with spasticity [1]; 100 mg/kg) was “inhibits the spasticity”, the “muscle resistance during the period of ankle flexion” value (rats with spasticity [1]; 100 mg/kg of Compound A, spasticity after transient spinal cord ischemia) was “decrease in muscle resistance” and the “EMG response / EMG activity” value (rats with spasticity [2]) was “corresponding changes in EMG activity; also recorded: inhibits EMG response”.
